Measured values from patent US20220193092A1, “PROGESTOGEN FOR USE IN THE TREATMENT OF CYTOKINE RELEASE SYNDROME” (Shenzhen Evergreen Therapeutics Co,. Ltd., priority 2020, published 2022).

Tests used:
Type in all cases: cell-based
[1] = system: human peripheral blood mononuclear cells (PBMCs); assay: T-cell inflammation inhibition assay using anti-CD28 super agonist (ANC28.1/5D10): cytokine release from PBMCs; conditions: PBMCs stimulated by anti-CD28 antibody
Method: (§1) The human peripheral blood mononuclear cells (PBMCs) used in the following experiments are derived from Eurofins Discovery (St Charles, Mo., USA) and are a mixture of PBMCs from three healthy human subjects (Lot#98, 99, 101).
1) T-cell Inflammation Inhibition Assay Protocol Using Anti-CD28 Super Agonists First Day
High-binding enzyme-labeled plates are coated with anti-CD28 super agonists (clone ANC28.1/5D10, 2 μg/well) dissolved in PBS 1× and incubated overnight in a biosafety cabinet with lid open and immobilized by air-dry. Cryopreserved PBMCs are drip thawed, pooled and diluted to an appropriate density, and then are inoculated into a U bottom 96-well polypropylene plate (1.2×10^5 cells per well) with 228 μL per well of culture medium (RPMI 1640, 10% heat inactivated fetal bovine serum, 1% penicillin/streptomycin, 2 mM L-glutamine). The cells are incubated under 5% CO2 at 37° C. for 1 hour before adding HPC. HPC is dissolved in 50% ethanol & PBS, and is further diluted to 20× with cell culture medium. Then HPC is added to the PBMCs in volumes of 12 μL (1×) in triplicate and incubated under 5% CO2 at 37° C. for 16 hours.
After 16 hours of incubation, 200 μL of cells (1×10^5) treated with HPC or a control reagent are transferred to the anti-CD28 coated enzyme-labeled plates, and incubated under 5% CO2 at 37° C. for 48 hours. For the negative control groups, 200 μL of cells (1×10^5) are transferred to an enzyme-labeled plate coated with anti-CD28 or isotype IgG1. After 48 hours of incubation, the enzyme-labeled plates are centrifuged at […] for 10 minutes. Cell culture supernatants are collected and stored at −80° C. until use in analysis.
(§2) The cytokine level of each sample is determined using Luminex methodology and carried out in accordance with the manufacturer's protocol. Cytokine levels in the cell culture supernatants are determined in accordance with the manufacturer's protocol using Human Cytokine/Chemokine Magnetic bead panel from Millipore Sigma (catalogue No. HCYTOMAG-60K) with standards range 3.2, 16, 80, 400, 2000, […].
(§3) The following cytokines are measured: IFN-γ, IL-2, IL-6, IL-10 and TNFα.

[2] = system: human peripheral blood mononuclear cells (PBMCs); assay: T-cell inflammation inhibition assay using anti-CD3 (OKT3): cytokine release from PBMCs; conditions: PBMCs stimulated by OKT3
Method: as §1
(§4) 2) T-Cell Inflammation Inhibition Assay Protocol Using Anti-CD3 (OKT3) or PHA
(§5) Cryopreserved PBMCs are drip thawed, pooled and diluted to an appropriate density, and inoculated into a 96-well polypropylene plate (2×10^5 cells per well) with 150 μL per well of culture medium (RPMI 1640, 10% heat inactivated fetal bovine serum, 1% penicillin/streptomycin, 2 mM L-glutamine). The cells are incubated under 5% CO2 at 37° C. for 1 hour before adding HPC. HPC is dissolved in 50% ethanol & PBS, and is further diluted to 20× with cell culture medium. Then HPC is added to the PBMCs in volumes of 10 μL (1×) in triplicate and incubated under 5% CO2 at 37° C. for 16 hours.
(§6) After incubation for 16 hours, 40 μL of anti-CD3 (OKT3, 3 μg/well or 15 μg/mL) or PHA (10 μg/mL) is added to the wells according to the plate layout. The cells are incubated under 5% CO2 at 37° C. for 48 hours. Thereafter, the plates are centrifuged at 200×g for 10 minutes. Cell culture supernatants are collected and stored at −80° C. until use in analysis.
as §2, §3

[3] = system: human peripheral blood mononuclear cells (PBMCs); assay: T-cell inflammation inhibition assay using PHA: cytokine release from PBMCs
Method: as §1, §4, §5, §6, §2, §3

[4] = 16 h HPC pre-incubation, 48 h stimulation, Luminex
[5] = PBMCs stimulated by PHA (10 μg/mL), 16 h HPC pre-incubation, 48 h stimulation, Luminex

## CCCCCC(=O)O[C@]1(C(C)=O)CC[C@H]2[C@@H]3CCC4=CC(=O)CC[C@]4(C)[C@H]3CC[C@@]21C [HPC, hydroxyprogesterone caproate]
[1]
  inhibition effect on IL-10 and IFN-γ release: concentration dependence: concentration dependent
[1]; [4]
  release of IFN-γ: significantly inhibited
  release of IL-6: significantly inhibited
  release of IL-10: significantly inhibited
  release of TNF-α: significantly inhibited
[2]
  inhibition effect on IL-6 and IL-10 release: concentration dependence: concentration dependent
[2]; [4]
  release of IFN-γ: significantly inhibited
  release of IL-6: significantly inhibited
  release of IL-10: significantly inhibited
[3]; PBMCs stimulated by PHA
  inhibition of IL-2, IL-6, IL-10 and TNF-α release: concentration dependence: concentration dependent
[3]; [5]
  release of IL-2: significantly inhibited
  release of IL-6: significantly inhibited
  release of IL-10: significantly inhibited
  release of TNF-α: significantly inhibited
